According to EP4417602A1, “SUBSTITUTED PYRAZOLE CARBOXAMIDES, SALTS THEREOF AND THEIR USE AS HERBICIDALLY ACTIVE SUBSTANCES” (Bayer AG, priority 2023, dated 2024):

Legend:
MATIN = test: E. Herbicidal post-emergence action, weed and crop plants (Tables E); assay type: in vivo, Matricaria inodora; settings: application rate 320 g/ha, visual assessment after ca. 3 weeks
Source text: Seeds of mono- and dicotyledonous weed plants and crop plants were sown, in plastic or organic planting pots, in sandy loam, covered with soil and grown in a greenhouse under controlled growth conditions. 2 to 3 weeks after sowing, the test plants were sprayed in the single-leaf stage. The compounds according to the invention, formulated in form of wettable powders (WP) or as emulsifiable concentrates (EC), were sprayed onto the green plant parts as aqueous suspension or emulsion, with the addition of 0.5% of an additive, at an application rate of 6001 of water/ha (converted). The test plants were placed in the greenhouse for ca. 3 weeks under optimum growth conditions, and then the effect of the preparations was assessed visually in comparison with untreated controls (herbicidal effect in percent (%): 100% effect = plants have died off, 0% effect = as control plants). Tables E1 to E7 below show the effects of selected compounds of the general formula (I) according to table 1 on various harmful plants and an application rate corresponding to 320 g/ha or below obtained by the experimental procedure mentioned above. Table E1: post-emergence activity at 320g/ha against ALOMY in %

ABUTH = test: A. Herbicidal pre-emergence action on harmful plants (Tables A); assay type: in vivo, Abutilon theophrasti; settings: application rate 1280 g/ha; visual grading after ca. 3 weeks vs untreated controls; 100% = plants have died off, 0% = as control plants
Source text: Seeds of mono- and dicotyledonous weed plants were sown in plastic pots (double sowings with one species of mono- and one species of dicotyledonous weed plants per pot), in sandy loam, and covered with soil. The compounds according to the invention, formulated in the form of wettable powders (WP) or as emulsifiable concentrates (EC), were applied to the surface of the covering soil as aqueous suspension or emulsion, with the addition of 0.5% of an additive, at an application rate of 6001 of water per hectare (converted). Following treatment, the pots were placed in a greenhouse and kept under optimum growth conditions for the test plants. The visual grading of the damage to the test plants was carried out after ca. 3 weeks in comparison to untreated controls (herbicidal effect in percent (%): 100% effect = plants have died off, 0% effect = as control plants). Tables A1 to A12, below, show the effects of selected compounds of the general formula (I) according to table 1 on various harmful plants and an application rate corresponding to 1280 g/ha or below obtained by the experimental procedure mentioned above. Table A1: pre-emergence activity at 1280g/ha against ABUTH in %

COCc1c(C(=O)N2CCCC2Cc2ccccc2Cl)cnn1C (racemic) [Example I-170]
post-emergence activity against MATIN in % (MATIN): 80%
pre-emergence activity against ABUTH (ABUTH): 90%
